In patent US10617732B2, “Composition including extract of Dolichos lablab Linne as active ingredient for preventing or ameliorating non-alcoholic fatty liver disease” (KOREA INSTITUTE OF ORIENTAL MEDICINE, priority 2014, dated 2020):

Tested on: hepatocarcinoma cell line (HepG2)
Test: Oil Red O staining assay of triglyceride in free fatty acid-treated cells
Format: cell-based
Settings: HepG2, 1 mM free fatty acid; 10, 30, 50 and 100 μM
Procedure: After the medium was removed from the Hepatocarcinoma cell line (HepG2), the cells were washed with 0.5 ml of PBS buffer solution, and the PBS buffer solution was completely removed therefrom. Then, 0.5 ml of 10% formalin was added thereto at room temperature and the resultant cells were incubated for 10 minutes.
After removing the formalin and adding 0.5 ml of fresh formalin, the cells were incubated for at least 1 hour (the cells can be stored in a formalin solution for several days before staining, and needs to be wrapped with an aluminum foil and parafilm to prevent the cells from being dried). […]
0.5 ml of an Oil Red O solution was added to the dried cells, which was then incubated at room temperature for 10 minutes. […] The debris of the staining solution was removed as much as possible, and images of the cells were obtained using a fluorescence microscope.
To the cells that had been completely dried, 0.5 ml of Oil Red O staining solution prepared by using 100% of isopropanol in a dry state was added. […] At this time, the resultant solution was mixed with a pipette up and down so that the cells were stained well with Oil Red O. Then, the mixture was transferred to a 96-well plate and the OD was measured at 500 nm. The OD value of 100% isopropanol was measured and used as a reference value (0 point).

Question: `CC1(C)[C@@H](O)CC[C@]2(C)[C@H]3C(=O)C=C4[C@@H]5C[C@@](C)(C(=O)O)CC[C@]5(C)CC[C@@]4(C)[C@]3(C)CC[C@@H]12` [18 beta-glycyrrhetinic acid] was tested. Which “content of triglyceride in Oil-red-O staining images” value did it give?
Answer: the higher concentration of 18 beta-glycyrrhetinic acid, the smaller content of triglyceride
